# According to patent publication US20200237909A1, “METHODS OF TREATING OR PREVENTING BREAST CANCER METASTASES USING ANTIBODIES TO JAGGED1 AND CHEMOTHERAPEUTIC AGENTS” (The Trustees of Princeton University, priority 2017, published 2020):
# Test system: MCF7, SCP28 and SUM1315-M1B1
# Test: Bone metastatic seeding after cisplatin pre-treatment (IIA injection, BLI)
# Type: in vivo, athymic nude mice
# Conditions: cisplatin one day before tumor cell injection, 4 days after injection
# Experimental: FIG. 5. Chemotherapy induces Jagged1 expression in osteoblast lineage cells. (A) Jagged1 mRNA expression in osteoblast MC3T3-E1-Clone #4 osteoblast cells and mesenchymal stem cells (MSC), HPMECL endothelial cells (endo), RAW264.7 pre-osteoclast cells, and SCP28 and SUM1315-M1B1 breast tumor cells 48 hr post-treatment with 25 nM paclitaxel or 10 μM cisplatin. (B) Athymic nude mice were i.v. injected with PBS or cisplatin and euthanized 48 hr later. Hind limb bones were collected for IF staining against Alp (green) and Jagged1 (red). Nuclei were counter-stained with DAPI (blue). (C-E) Athymic nude mice were treated with either PBS or cisplatin on Day 0. One day after the pre-treatment, MCF7 (C), SUM1315-M1B1 (D) or SCP28 (E) cells were delivered locally to the hind limbs of these mice by IIA injection. BLI imaging and quantification of BLI signal at Day 4. (F) Mice from experiment in E were euthanized after BLI imaging at Day 4. Hind limbs were fixed and processed for IF imaging of GFP-expressing tumor cells (green) and ALP positive osteoblasts (red). Size bar: 80 μm. In A: n=3. *p<0.05 by Student's t-test. In C-E: n=5. *p<0.05 by Student's t-test. #: statistically insignificant.
# To directly test the effect of increased Jagged1 expression in osteoblasts on bone metastasis seeding and progression, two models were utilized. […]
compound,measurement,value
N.N.[Cl][Pt][Cl] [cisplatin],bone metastatic seeding (BLI),significant increase
